Read-outs that look alike come from different tables or passages of the source. Marks after values point to notes of the source that are not given here.
How the values were obtained:
[1] = tested on: MRSA BAA-1707; assay: MIC broth microdilution, MRSA BAA-1707; type: cell-based, Staphylococcus aureus
Procedure, shortened: (§1)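 Compounds ranged from 0.10 to 100 μM in two-fold steps in Luria Broth, with ~10^5 log-phase bacteria per well. The vehicle control was DMSO, serially diluted from 1% v/v.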

[2] = tested on: MRSA BAA-44; assay: MIC broth microdilution, MRSA BAA-44; type: cell-based, Staphylococcus aureus
Procedure, shortened: as §1

[3] = tested on: Pseudomonas aeruginosa (PAO1); assay: MIC broth microdilution, PAO1; type: cell-based
Procedure, shortened: (§2)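 Each strain, ~10^5 cells from log-phase culture, was grown 16–18 h at 37 °C in Luria Broth with two-fold serial compound dilutions spanning 0.10–100 μM (DMSO ≤1% v/v). The MIC, the lowest growth-preventing concentration, was confirmed by OD600 following CLSI microdilution. At least three independent repeats.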

[4] = tested on: SA-138 (clinical isolate); assay: MIC broth microdilution, SA-138; type: cell-based, Staphylococcus aureus
Procedure, shortened: as §1

[5] = tested on: SA-156 (clinical isolate); assay: MIC broth microdilution, SA-156; type: cell-based, Staphylococcus aureus
Procedure, shortened: as §1

[6] = tested on: methicillin-resistant Staphylococcus epidermidis (MRSE strain ATCC 35984); assay: MIC broth microdilution, MRSE 35984; type: cell-based; details: for MIC S. epidermidis MRSE 35984: Table 1A; for MIC MRSE 35984: Table 4
Procedure, shortened: as §2

[7] = tested on: methicillin-resistant Staphylococcus aureus MRSA-2 (clinical isolate); assay: MIC broth microdilution, MRSA-2; type: cell-based
Procedure, shortened: as §2

[8] = tested on: human red blood cells (hRBC); assay: Hemolysis of red blood cells; type: cell-based
Procedure, shortened: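 hRBCs (2% suspension) exposed to compounds at 0.2–200 μM (ten-point dose-response) for 1 h at 37 °C; after centrifugation, haemoglobin release read as supernatant OD at 405 nm. DMSO set as 0% and Triton X as 100% haemolysis; HC50 from dose-response curves, three independent experiments.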

[9] = tested on: MRSA-1 (clinical isolate); assay: MIC broth microdilution, MRSA-1; type: cell-based, Staphylococcus aureus
Procedure, shortened: as §1

[10] = tested on: methicillin-sensitive Staphylococcus aureus ATCC 29213; assay: MIC broth microdilution, S. aureus 29213; type: cell-based
Procedure, shortened: as §1

[11] = tested on: SA-147 (clinical isolate); assay: MIC broth microdilution, SA-147; type: cell-based, Staphylococcus aureus
Procedure, shortened: as §1

[12] = tested on: vancomycin-resistant Enterococcus faecium (VRE strain ATCC 700221); assay: MIC broth microdilution, VRE 700221; type: cell-based; details: for MIC E. faecium VRE 700221: Table 1A; for MIC VRE 700221: Table 4
Procedure, shortened: as §2

[13] = tested on: Acinetobacter baumannii (ATCC 1794); assay: MIC broth microdilution, A. baumannii 1794; type: cell-based; details: for MIC A. baumannii 1794: Table 1A; for MIC: Acinetobacter baumannii, ATCC1794
Procedure, shortened: as §2

[14] = tested on: SA-129 (clinical isolate); assay: MIC broth microdilution, SA-129; type: cell-based, Staphylococcus aureus
Procedure, shortened: as §1

Question: What does the source list for `CCCCCCCCCCCCCCCCn1cc(-c2ccccc2)[n+](C)n1.[I-]` [Compound 30]?
Answer: MIC ([1]; Table 1B, read-out: MIC MRSA BAA-1707): 3.13 µM; MIC ([1]; Table 2A, read-out: MRSA BAA-1707 MIC): 3.13 µM; MIC ([1]; Table 3, read-out: MIC MRSA BAA-1707): 3.13 µM; MIC MRSA 1707 ([1]; Table 4): 3.13 µM; MIC MRSA BAA-44 ([2]; Table 1B): 4.69^a μM; MIC MRSA BAA-44 ([2]; Table 3): 4.69^a μM; MIC PAO1 ([3]; Table 1A): > 100 µM; MIC PAO1 ([3]; Table 4): >100 µM; MIC SA-138 ([4]; Table 1B): 2.35^a μM; MIC SA-138 ([4]; Table 3): 2.35^a μM; MIC SA-156 ([5]; Table 1B): 2.35^s μM; MIC SA-156 ([5]; Table 3): 2.35^a μM; MIC S. epidermidis MRSE 35984 [6]: 1.56 µM; MIC ([6]; Table 2A, read-out: MRSE 35984 MIC): 1.56 µM; MIC MRSE 35984 [6]: 1.56 µM; MIC MRSA-2 ([7]; Table 1A): 3.13 µM; MIC ([7]; Table 1B, read-out: MIC MRSA-2): 6.25 µM; MRSA-2 MIC ([7]; Table 2A): 3.13 µM; MIC ([7]; Table 3, read-out: MIC MRSA-2): 6.25 µM; MIC MRSA-2 ([7]; Table 4): 3.13 µM; HC50 ([8]; Table 1A): 12.6 µM; RBC HC50 ([8]; Table 4, concentration required to lyse 50% of red blood cells): 12.6 µM; MIC MRSA-1 ([9]; Table 1B): 4.69^a μM; MIC MRSA-1 ([9]; Table 3): 4.69^a μM; MIC ([10]; Table 1B): 3.13 µM; MIC ([10]; Table 3): 3.13 µM; MIC ([11]; Table 1B): 1.56 µM; MIC ([11]; Table 3): 1.56 µM; MIC E. faecium VRE 700221 [12]: 3.13 µM; VRE MIC ([12]; Table 2A): 3.13 µM; MIC VRE 700221 [12]: 3.13 µM; MIC A. baumannii 1794 ([13]; in µM): 12.5; MIC A. bau. 1794 ([13]; Table 4): 12.5 µM; MIC ([14]; Table 1B): 1.56 µM; MIC ([14]; Table 3): 1.56 µM

Question: `CCCCCCCCCCCCCCCCn1cc[n+](Cc2ccccc2)c1C` [NH125, 3-benzyl-1-hexadecyl-2-methyl-1H-imidazol-3-ium bromide, reference compound] was tested. Which MIC ([1]; Staphylococcus aureus, Table 1, read-out: MIC MRSA BAA-1707) did it give?
Answer: 2.35 µM

Question: And the MIC ([1]; Staphylococcus aureus, Table 2, read-out: MRSA BAA-1707 MIC)?
Answer: 2.35 µM

Question: What about the MIC ([1]; Staphylococcus aureus, Table 4, read-out: MIC MRSA 1707) of the same compound?
Answer: 2.35 µM

Question: What about the “MIC MRSA BAA-1707” value ([1]; Table 3) of the same compound?
Answer: 2.35^a μM

Question: And the MIC ([2]; Staphylococcus aureus, Table 3)?
Answer: 4.69 µM

Question: What about the MIC ([3]; Pseudomonas aeruginosa, PAO1, Table 1) of the same compound?
Answer: > 100 µM

Question: And the MIC PAO1 ([3]; Table 1A)?
Answer: > 100 µM

Question: What about the “MIC PAO1” value ([3]; Table 4) of the same compound?
Answer: >100 µM

Question: What about the MIC ([4]; Staphylococcus aureus, Table 3) of the same compound?
Answer: 6.25 µM

Question: And the MIC ([5]; Staphylococcus aureus, Table 3)?
Answer: 6.25 µM

Question: And the MIC ([6]; Staphylococcus epidermidis, Table 1, read-out: MIC MRSE 35984)?
Answer: 4.69 µM

Question: What about the MIC ([6]; Staphylococcus epidermidis, Table 2, read-out: MRSE 35984 MIC) of the same compound?
Answer: 4.69 µM

Question: And the “MIC S. epidermidis MRSE 35984” value [6]?
Answer: 4.69^a

Question: What about the “MIC MRSE 35984” value [6] of the same compound?
Answer: 4.69a micromolar

Question: And the MIC ([7]; Staphylococcus aureus, BAA-1707 / MRSA, MRSA-2 and MRSA BAA-1707, read-out: MIC against two MRSA strains)?
Answer: 2.35 to 4.69 µM

Question: And the MIC ([7]; Staphylococcus aureus, MRSA, Table 1, read-out: MIC MRSA-2)?
Answer: 4.69 µM

Question: What about the MIC ([7]; Staphylococcus aureus, MRSA, Table 4, read-out: MIC MRSA-2) of the same compound?
Answer: 4.69 µM

Question: What about the MIC ([7]; Staphylococcus aureus, MRSA, Table 3, read-out: MIC MRSA-2) of the same compound?
Answer: 3.13 µM

Question: And the “MIC MRSA-2” value ([7]; Table 1A)?
Answer: 4.69^a

Question: What about the hemolytic activity [8] of the same compound?
Answer: potent hemolytic activities

Question: And the HC50 ([8]; human, 1 h, pH 7.2)?
Answer: 35.6 µM

Question: What about the MIC ([9]; Staphylococcus aureus, MRSA, Table 3) of the same compound?
Answer: 6.25 µM

Question: What about the MIC ([10]; Staphylococcus aureus, ATCC29213, Table 3) of the same compound?
Answer: 4.69 µM

Question: And the MIC ([11]; Staphylococcus aureus, Table 3)?
Answer: 4.69 µM

Question: What about the MIC ([12]; Table 1, read-out: MIC VRE 700221) of the same compound?
Answer: 3.13 µM

Question: What about the MIC E. faecium VRE 700221 [12] of the same compound?
Answer: 3.13 µM

Question: And the MIC ([12]; Table 2, read-out: VRE 700221 MIC)?
Answer: 3.13 µM

Question: And the “MIC VRE 700221” value [12]?
Answer: 3.13 µM

Question: What about the MIC ([13]; Table 1, read-out: MIC A. baumannii 1794) of the same compound?
Answer: 37.5 µM

Question: What about the MIC ([13]; Table 4, read-out: MIC A. bau. 1794) of the same compound?
Answer: 37.5 µM

Question: And the “MIC A. baumannii 1794” value [13]?
Answer: 37.5^a

Question: What about the MIC ([14]; Staphylococcus aureus, Table 3) of the same compound?
Answer: 4.69 µM
